The text below walks through data of publication PMC3715888, “A Fully Unsupervised Compartment-on-Demand Platform for Precise Nanoliter Assays of Time-Dependent Steady-State Enzyme Kinetics and Inhibition” (Analytical Chemistry, 2013).

For orientation: pKi means −log10 of the Ki, conventionally taken in molar units. Low values mean a large Ki, high ones a small Ki.

For the assay, the target named is sweet almond β-glucosidase. In words: droplet absorbance assay of 4-nitrophenyl glucopyranoside hydrolysis ([…] nm); IC50 […] converted to Ki by Cheng-Prusoff. The format is biochemical, Prunus dulcis.

The structures appear in SMILES notation. pKi: −log10 of the molar value. Where a name gives a salt, the structure may show the parent alone.

Consider `OC[C@H]1NC[C@H](O)[C@@H](O)[C@@H]1O` [DNM, 1-deoxynojirimycin hydrochloride], for which the pKi was around 4.44.
